Read-outs that look alike come from different tables or passages of the source. Blank lines part the entries; values can stand above or below the compound they belong to.
Experiments:
[1] = monotherapy, cited from earlier work
[2] = PK study of paroxetine and prednisolone administered orally to humans; type: in vivo, human; settings: paroxetine/prednisolone combination PK study, oral
[3] = PK study of amoxapine and prednisolone administered orally to humans; settings: amoxapine/prednisolone combination PK study, oral

SMILES: CNCCC=C1c2ccccc2CCc2ccccc21 [Nortriptyline]
- Mean Tmax ([1]; oral, 25 mg): 8 h
- Mean elimination half life ([1]; oral, 25 mg): 16 h

SMILES: CCCC1O[C@@H]2C[C@H]3[C@@H]4CCC5=CC(=O)C=C[C@]5(C)[C@H]4[C@@H](O)C[C@]3(C)[C@]2(C(=O)CO)O1 (stereo partly shown) [Budesonide]
- Mean Tmax ([1]; inhaled, 200 μg): 0.5 h
- Mean elimination half life (Hours) ([1]; inhaled, 200 μg): ca. 2 Hours

SMILES: OCCN(CCO)c1nc(N2CCCCC2)c2nc(N(CCO)CCO)nc(N3CCCCC3)c2n1 [Dipyridamole, 2,6-bis(diethanolamino)-4,8-dipiperidinopyrimido(5,4-d)pyrimidine]
- Mean Tmax ([1]; oral, 25 mg): 0.75 h
- Mean elimination half life ([1]; oral, 25 mg): 10 h

Now from value to compound, other results behind:

- Mean Tmax ([2]; 3 mg): 1.9 h
- Mean elimination half life ([2]; 3 mg): 2.7 h
- Mean Tmax ([3]; 3 mg): 1.9 h
- Mean elimination half life ([3]; 3 mg): 4.5 h
SMILES: C[C@]12C=CC(=O)C=C1CC[C@@H]1[C@@H]2[C@@H](O)C[C@@]2(C)[C@H]1CC[C@]2(O)C(=O)CO [Prednisolone]
- Mean Tmax ([1]; oral, 3 mg): 1.9 h
- Mean elimination half life ([1]; oral, 3 mg): 2.7 h

- Mean Tmax ([3]; 100 mg): 2.4 h
- Mean elimination half life ([3]; 100 mg): 9.7 h
SMILES: Clc1ccc2c(c1)C(N1CCNCC1)=Nc1ccccc1O2 [Amoxapine]

- Mean Tmax ([2]; 20 mg): 7 h
- Mean elimination half life ([2]; 20 mg): 20.2 h
SMILES: Fc1ccc([C@@H]2CCNC[C@H]2COc2ccc3c(c2)OCO3)cc1 [Paroxetine]

From patent US20050112199A1, “Therapeutic regimens for administering drug combinations” (priority 2003, published 2005)
